Data from US9096608B2, “Pharmaceutically active pyrazolo-triazine derivatives” (LEAD DISCOVERY CENTER GMBH, priority 2012, dated 2015).

What was measured:
Type in all cases: biochemical
CDK2/CycA = target: T1, CDK2/CycA (Homo sapiens, UniProt P24941); experiment: CDK2 Enzymatic Activity Assay (Lance Kinase Activity Assay, FRET); conditions: Table 5B; symbols per IC50 ranges of b615
T1 construct: purchased Proqinase
Experimental: (§1) This protocol describes how the Lance Kinase Activity Assay was performed to determine IC50 values of compounds of general formula (I) against CDK/Cyclin complexes. The principle behind this enzymatic assay is based upon the phosphorylation of the Ulight-Peptide Substrat. It is detected by using a specific EU-labeled anti-phospho peptide antibody.
(§2) Binding of an inhibitor to the kinase prevents phosphorylation of the ULlight-MBP Substrat, resulting in a loss of FRET.
CDK2 Enzymatic Activity Assay
(§3) The compounds of general formula (I) exemplary summarized in Table 1 were diluted from a 10 mM DMSO stock solution 1:10 in a total volume of 15 μl DMSO. This compound predilution was then serial diluted 1:3 over 8 steps in DMSO and briefly spun down. Each compound solution was now diluted 1:20 in Enzymatic Buffer (HEPES: 50 mM, pH: 7.5; MgCl2: 10 mM; EGTA: 1 mM; DTT: 2 mM; Tween-20: 0.01%), mixed thoroughly and spun down.
(§4) For positive controls, 2 μl of DMSO working solution were mixed with 6 μl CDK2/CycA/substrate working solution and 2 μl ATP working solution. Positive and negative controls were calculated from at least 8 different wells. The 384 well plates were mixed in a Teleshaker plate mixer (Beckman Coulter, Brea, Calif., USA) at 2000 rpm for 40 sec, and incubated for 1 h at room temperature before addition of 10 μl LANCE Detection Buffer (EDTA: 20 nM; Eu-Anti-P-MBP: 4 nM) per well. Plates were mixed in a Teleshaker plate mixer (Beckman Coulter, Brea, Calif., USA) at 2000 rpm for sec, followed by incubation with Detection Buffer for 1 h, and reading. […] IC50 values were determined from the sigmoidal dose response curves with the software Quattro Workflow (Quattro GmbH, Munich, Germany).

CDK7/CycH/Mat1 = target: T2, CDK7/CycH/Mat1 (Homo sapiens, UniProt P50613); experiment: CDK7 Enzymatic Activity Assay (Lance Kinase Activity Assay, FRET); conditions: Table 5A; 25 μM ATP final; read-out: CDK7: IC50 [mM] for CDK7 inhibition (the above defined ranges apply)
T2 construct: purchased Carna
T2 sequence (P50613 whole entry): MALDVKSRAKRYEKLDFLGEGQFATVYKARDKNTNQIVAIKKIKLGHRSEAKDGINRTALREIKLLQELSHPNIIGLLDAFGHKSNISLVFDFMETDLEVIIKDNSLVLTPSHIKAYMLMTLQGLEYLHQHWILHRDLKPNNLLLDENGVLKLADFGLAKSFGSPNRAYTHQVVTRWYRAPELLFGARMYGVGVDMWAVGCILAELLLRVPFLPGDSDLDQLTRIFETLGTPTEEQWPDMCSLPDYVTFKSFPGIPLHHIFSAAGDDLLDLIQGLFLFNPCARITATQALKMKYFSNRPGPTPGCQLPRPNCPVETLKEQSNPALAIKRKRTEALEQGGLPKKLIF
T2 sequence (P51946 whole entry partner): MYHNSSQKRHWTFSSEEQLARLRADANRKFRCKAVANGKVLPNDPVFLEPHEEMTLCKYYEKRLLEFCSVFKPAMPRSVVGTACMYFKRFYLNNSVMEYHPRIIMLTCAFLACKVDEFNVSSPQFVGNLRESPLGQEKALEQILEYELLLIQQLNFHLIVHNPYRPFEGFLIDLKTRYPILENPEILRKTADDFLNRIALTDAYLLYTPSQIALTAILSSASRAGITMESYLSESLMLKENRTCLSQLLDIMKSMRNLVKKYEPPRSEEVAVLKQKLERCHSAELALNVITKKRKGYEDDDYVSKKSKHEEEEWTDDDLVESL
T2 sequence (P51948 whole entry partner): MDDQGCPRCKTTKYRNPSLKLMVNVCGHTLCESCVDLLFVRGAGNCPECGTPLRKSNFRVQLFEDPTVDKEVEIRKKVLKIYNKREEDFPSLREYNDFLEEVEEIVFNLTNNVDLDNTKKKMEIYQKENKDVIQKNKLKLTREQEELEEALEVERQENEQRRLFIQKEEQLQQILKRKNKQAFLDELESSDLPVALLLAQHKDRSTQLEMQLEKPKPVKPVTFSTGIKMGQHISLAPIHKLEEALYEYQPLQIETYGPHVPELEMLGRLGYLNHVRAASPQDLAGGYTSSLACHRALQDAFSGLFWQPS
Experimental: as §1, §2
CDK7 Enzymatic Activity Assay
as §3
as §4, with “6 μl CDK7/CycH/Mat1/substrate working solution” for “6 μl CDK2/CycA/substrate working solution”, “Detection Buffer (1×; EDTA: […];” for “Detection Buffer (EDTA: 20 nM;”, “rpm for 40 sec, followed” for “rpm for sec, followed”

CDK9/Cyclin T1 = target: T3, CDK9/Cyclin T1 (Homo sapiens, UniProt P50750); experiment: CDK9 Enzymatic Activity Assay (Lance Kinase Activity Assay, FRET); conditions: Table 5B; symbols per IC50 ranges of b615
T3 construct: purchased Invitrogen
T3 sequence (P50750 whole entry): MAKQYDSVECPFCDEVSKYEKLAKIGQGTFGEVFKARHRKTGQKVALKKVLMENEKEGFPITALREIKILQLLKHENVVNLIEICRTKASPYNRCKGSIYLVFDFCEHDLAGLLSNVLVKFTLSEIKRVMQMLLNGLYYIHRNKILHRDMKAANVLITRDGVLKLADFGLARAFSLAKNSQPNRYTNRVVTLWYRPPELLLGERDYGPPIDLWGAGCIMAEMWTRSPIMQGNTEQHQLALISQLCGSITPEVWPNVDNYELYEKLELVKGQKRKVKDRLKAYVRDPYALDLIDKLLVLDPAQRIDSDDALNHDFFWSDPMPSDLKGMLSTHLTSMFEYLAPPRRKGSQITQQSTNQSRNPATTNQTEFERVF
T3 sequence (O60563 whole entry partner): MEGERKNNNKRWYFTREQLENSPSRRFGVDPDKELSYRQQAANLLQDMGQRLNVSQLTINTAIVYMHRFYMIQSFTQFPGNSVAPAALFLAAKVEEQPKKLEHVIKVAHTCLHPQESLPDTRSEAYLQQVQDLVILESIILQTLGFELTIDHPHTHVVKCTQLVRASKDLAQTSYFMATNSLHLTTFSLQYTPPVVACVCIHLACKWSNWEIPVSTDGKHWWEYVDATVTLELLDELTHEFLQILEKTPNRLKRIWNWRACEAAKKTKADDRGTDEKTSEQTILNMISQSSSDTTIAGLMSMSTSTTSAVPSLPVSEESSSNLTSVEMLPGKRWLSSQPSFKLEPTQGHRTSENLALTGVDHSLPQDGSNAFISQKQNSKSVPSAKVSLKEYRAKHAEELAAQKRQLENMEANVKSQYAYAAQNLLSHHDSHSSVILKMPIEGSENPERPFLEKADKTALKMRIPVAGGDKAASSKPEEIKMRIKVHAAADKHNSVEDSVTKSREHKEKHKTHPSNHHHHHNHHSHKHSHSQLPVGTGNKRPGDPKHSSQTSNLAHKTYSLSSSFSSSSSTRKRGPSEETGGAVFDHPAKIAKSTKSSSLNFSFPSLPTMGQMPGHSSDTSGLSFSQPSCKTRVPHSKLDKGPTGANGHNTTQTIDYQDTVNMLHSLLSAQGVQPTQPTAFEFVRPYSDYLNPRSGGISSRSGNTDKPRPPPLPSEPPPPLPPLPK
Experimental: as §1, §2
CDK9 Enzymatic Activity Assay
as §3
as §4, with “CDK9/cyclin T1/substrate” for “CDK2/CycA/substrate”, “(1×; EDTA:” for “(EDTA:”

| CDK2 IC50 range class (CDK2/CycA) | IC50 (CDK7/CycH/Mat1) | CDK9: Selectivity of CDK7 inhibition over CDK9 inhibition [fold] (CDK9/Cyclin T1) | SMILES |
| --- | --- | --- | --- |
| +++ (IC50>2500 nM) | 30 to 100 nM | +++ (IC50>2500 nM) | COc1cccc([C@H](C)Nc2nc(NCC3CCNC3)nc3c(C(C)C)cnn23)c1 (stereo partly drawn) [(VIII-w), 8-isopropyl-N4-((S)-1-(3-methoxyphenyl)ethyl)-N2-(pyrrolidin-3-ylmethyl)pyrazolo[1,5-a][1,3,5]triazine-2,4-diamine] |
| +++ (IC50>2500 nM) | > 100 nM | +++ (IC50>2500 nM) | CC(C)c1cnn2c(NC(C)c3ccccc3N3CCCCC3)nc(O[C@@H]3CCCNC3)nc12 (stereo partly drawn) [(VII-aq), 8-isopropyl-N-(1-(2-(piperidin-1-yl)phenyl)ethyl)-2-((R)-piperidin-3-yloxy)pyrazolo[1,5-a][1,3,5]triazin-4-amine] |
| +++ (IC50>2500 nM) | < 10 nM | +++ (IC50>2500 nM) | CC(C)c1cnn2c(NC(C)c3cccc4cn[nH]c34)nc(O[C@@H]3CCCNC3)nc12 (stereo partly drawn) [(VII-cb), N-(1-(1H-indazol-7-yl)ethyl)-8-isopropyl-2-((R)-piperidin-3-yloxy)pyrazolo[1,5-a][1,3,5]triazin-4-amine] |
| +++ (IC50>2500 nM) | < 10 nM | +++ (IC50>2500 nM) | COc1cccc([C@H](C)Nc2nc(N3CC4(CCNC4)C3)nc3c(C(C)C)cnn23)c1 [(VIII-ae), (S)-8-isopropyl-N-(1-(3-methoxyphenyl)ethyl)-2-(2,6-diazaspiro[3.4]octan-2-yl)pyrazolo[1,5-a][1,3,5]triazin-4-amine] |
| +++ (IC50>2500 nM) | > 100 nM | +++ (IC50>2500 nM) | COc1cccc([C@H](C)Nc2nc(C(=O)N3CCNCC3)nc3c(C(C)C)cnn23)c1 [(XXVI-4), (S)-(8-isopropyl-4-((1-(3-methoxyphenyl)ethyl)amino)pyrazolo[1,5-a][1,3,5]triazin-2-yl)(piperazin-1-yl)methanone] |
| +++ (IC50>2500 nM) | 30 to 100 nM | +++ (IC50>2500 nM) | COc1cccc([C@H](C)Nc2nc(NCCCN)nc3c(C(C)C)cnn23)c1 [(VIII-t), (S)-N2-(3-aminopropyl)-8-isopropyl-N4-(1-(3-methoxyphenyl)ethyl)pyrazolo[1,5-a][1,3,5]triazine-2,4-diamine] |
| +++ (IC50>2500 nM) | < 10 nM | +++ (IC50>2500 nM) | CC(C)c1cnn2c(N[C@@H](C)c3ccccc3O)nc(O[C@@H]3CCCNC3)nc12 [(VII-ba), 2-((S)-1-((8-isopropyl-2-((R)-piperidin-3-yloxy)pyrazolo[1,5-a][1,3,5]triazin-4-yl)amino)ethyl)phenol] |
| +++ (IC50>2500 nM) | 10 to 30 nM | +++ (IC50>2500 nM) | COc1cccc([C@H](C)Nc2nc(N3CCC34CCCNC4)nc3c(C(C)C)cnn23)c1 (stereo partly drawn) [(VIII-ag), 8-isopropyl-N-((S)-1-(3-methoxyphenyl)ethyl)-2-(1,6-diazaspiro[3.5]nonan-1-yl)pyrazolo[1,5-a][1,3,5]triazin-4-amine] |
| +++ (IC50>2500 nM) | > 100 nM | +++ (IC50>2500 nM) | CCOc1ccccc1[C@H](C)Nc1nc(O[C@@H]2CCCNC2)nc2c(C(C)C)cnn12 [(VII-aw), N-((S)-1-(2-ethoxyphenyl)ethyl)-8-isopropyl-2-((R)-piperidin-3-yloxy)pyrazolo[1,5-a][1,3,5]triazin-4-amine] |
| +++ (IC50>2500 nM) | > 100 nM | +++ (IC50>2500 nM) | COc1ccc(OC)c([C@H](C)Nc2nc(O[C@@H]3CCCNC3)nc3c(C(C)C)cnn23)c1 [(VII-bd), N-((S)-1-(2,5-dimethoxy-phenyl)ethyl)-8-isopropyl-2-((R)-piperidin-3-yloxy)pyrazolo[1,5-a][1,3,5]triazin-4-amine] |
| +++ (IC50>2500 nM) | < 10 nM | +++ (IC50>2500 nM) | CC(C)c1cnn2c(N[C@@H](C)c3ccccc3)nc([S+]([O-])C3CCNCC3)nc12 (stereo partly drawn) [(X-a), 8-isopropyl-N-((S)-1-phenylethyl)-2-(piperidin-4-ylsulfinyl)pyrazolo[1,5-a][1,3,5]triazin-4-amine] |
| +++ (IC50>2500 nM) | > 100 nM | +++ (IC50>2500 nM) | COc1cccc([C@H](C)Nc2nc(NCCN3CCCC3)nc3c(C(C)C)cnn23)c1 [(VIII-l), (S)-8-isopropyl-N4-(1-(3-methoxyphenyl)ethyl)-N2-(2-(pyrrolidin-1-yl)ethyl)pyrazolo[1,5-a][1,3,5]triazine-2,4-diamine] |
| +++ (IC50>2500 nM) | 10 to 30 nM | +++ (IC50>2500 nM) | COc1cccc([C@H](C)Nc2nc(N3CCC4(CCNC4)C3)nc3c(C(C)C)cnn23)c1 (stereo partly drawn) [(VIII-af), 8-isopropyl-N-((S)-1-(3-methoxyphenyl)ethyl)-2-(2,7-diazaspiro[4.4]nonan-2-yl)pyrazolo[1,5-a][1,3,5]triazin-4-amine] |
| +++ (IC50>2500 nM) | > 100 nM | +++ (IC50>2500 nM) | COc1cccc([C@H](C)Nc2nc(C(=O)N3CC4(CNC4)C3)nc3c(C(C)C)cnn23)c1 [(XXVI-1), (S)-(8-isopropyl-4-((1-(3-methoxyphenyl)ethyl)amino)pyrazolo[1,5-a][1,3,5]triazin-2-yl)(2,6-diazaspiro[3.3]heptan-2-yl)methanone] |
| +++ (IC50>2500 nM) | 30 to 100 nM | +++ (IC50>2500 nM) | COc1cccc([C@H](C)Nc2nc(CNC3CCNC3)nc3c(C(C)C)cnn23)c1 (stereo partly drawn) [(XXIX-4), 8-isopropyl-N-((S)-1-(3-methoxyphenyl)ethyl)-2-((pyrrolidin-3-ylamino)methyl)pyrazolo[1,5-a][1,3,5]triazin-4-amine] |
| +++ (IC50>2500 nM) | > 100 nM | +++ (IC50>2500 nM) | COc1cccc([C@H](C)Nc2nc(CN3CCNCC3)nc3c(C(C)C)cnn23)c1 [(XXIX-1), (S)-8-isopropyl-N-(1-(3-methoxyphenyl)ethyl)-2-(piperazin-1-ylmethyl)pyrazolo[1,5-a][1,3,5]triazin-4-amine] |
| +++ (IC50>2500 nM) | 10 to 30 nM | +++ (IC50>2500 nM) | COc1cccc([C@H](C)Nc2nc(N3CCCC34CCNCC4)nc3c(C(C)C)cnn23)c1 [(VIII-ak), (S)-8-isopropyl-N-(1-(3-methoxyphenyl)ethyl)-2-(1,8-diazaspiro[4.5]decan-1-yl)pyrazolo[1,5-a][1,3,5]triazin-4-amine] |

| SMILES | CDK2 IC50 range class (CDK2/CycA) | IC50 (CDK7/CycH/Mat1) | CDK9: Selectivity of CDK7 inhibition over CDK9 inhibition [fold] (CDK9/Cyclin T1) |
| --- | --- | --- | --- |
| CC(C)COc1cccc([C@H](C)Nc2nc(O[C@@H]3CCCNC3)nc3c(C(C)C)cnn23)c1 [(VII-bb), N-((S)-1-(3-isobutoxyphenyl)ethyl)-8-isopropyl-2-((R)-piperidin-3-yloxy)pyrazolo[1,5-a][1,3,5]triazin-4-amine] | +++ (IC50>2500 nM) | 30 to 100 nM | +++ (IC50>2500 nM) |
